Reference: ChEMBL document CHEMBL5375952, “Discovery of Novel 8-Hydroxyquinoline Derivatives with Potent In Vitro and In Vivo Antifungal Activity” (J Med Chem, 2023)
Activity calls are given as the source filed them. No cut-off for these calls is given here.

Experiments:
Candida albicans [1] = assay: Inhibition of biofilm formation of Candida albicans SC5314 incubated for 24 hrs by XTT assay; assay type: functional, organism-based; details: dose <= 16.0 µg/ml
Candida albicans [2] = assay: Antifungal activity against Candida albicans SC5314 infected in C57BL/6 mouse assessed as mean fungal burden at 0.25 mg/kg, ip measured after 46 hrs by plate count method (reference value: 6.902 log10CFU/ml); assay type: functional
Candida albicans [3] = assay: Synergistic antifungal activity against FLC-resistant Candida albicans 605141 assessed as fractional inhibitory concentration index incubated for 48 hrs in presence of FLC by broth microdilution method; assay type: functional
Candida albicans [4] = assay: Synergistic antifungal activity against FLC-resistant Candida albicans 605141 assessed as MIC of FLC incubated for 48 hrs by broth microdilution method; assay type: functional
Candida albicans [5] = assay: Inhibition of biofilm formation of Candida albicans SC5314 at 8 ug/ml incubated for 24 hrs by XTT assay relative to control; assay type: functional
Candida albicans [6] = assay: Synergistic antifungal activity against FLC-resistant Candida albicans 710419 assessed as MIC of FLC incubated for 48 hrs by broth microdilution method; assay type: functional
Candida albicans [7] = assay: Synergistic antifungal activity against FLC-resistant Candida albicans 17 assessed as fungal growth inhibition incubated for 48 hrs in presence of FLC by broth microdilution method; assay type: functional
Candida albicans [8] = assay: Synergistic antifungal activity against FLC-resistant Candida albicans 100 assessed as MIC of FLC incubated for 48 hrs by broth microdilution method; assay type: functional
[9] = AUC (0 to infinity) in Sprague-Dawley rat at 5 mg/kg, po by LC-MS/MS analysis; assay type: ADME, organism-based; design: dose 5 mg/kg, route po; details: in vivo
Candida albicans [10] = assay: Synergistic antifungal activity against FLC-resistant Candida albicans 241 assessed as fungal growth inhibition incubated for 48 hrs in presence of FLC by broth microdilution method; assay type: functional
Candida albicans [11] = assay: Synergistic antifungal activity against FLC-resistant Candida albicans 395 assessed as fractional inhibitory concentration index incubated for 48 hrs in presence of FLC by broth microdilution method; assay type: functional
[12] = Volume of distribution at steady state in Sprague-Dawley rat at 2 mg/kg, iv by LC-MS/MS analysis; assay type: ADME, organism-based; details: in vivo, read-out: Vdss
[13] = AUC (0 to infinity) in Sprague-Dawley rat at 2 mg/kg, iv by LC-MS/MS analysis; assay type: ADME, organism-based; design: dose 2 mg/kg, route iv; details: in vivo
Candida albicans [14] = assay: Synergistic antifungal activity against FLC-resistant Candida albicans 304103 assessed as MIC of FLC incubated for 48 hrs by broth microdilution method; assay type: functional
Candida albicans [15] = assay: Synergistic antifungal activity against FLC-resistant Candida albicans 395 assessed as MIC of FLC incubated for 48 hrs by broth microdilution method; assay type: functional
Candida albicans [16] = assay: Synergistic antifungal activity against FLC-resistant Candida albicans 5740 assessed as MIC of FLC incubated for 48 hrs by broth microdilution method; assay type: functional
Candida albicans [17] = assay: Synergistic antifungal activity against FLC-resistant Candida albicans 305 assessed as fungal growth inhibition incubated for 48 hrs in presence of FLC by broth microdilution method; assay type: functional
[18] = MRT (0 to t) in Sprague-Dawley rat at 5 mg/kg, po by LC-MS/MS analysis; assay type: ADME, organism-based; details: in vivo
[19] = Clearance in Sprague-Dawley rat at 2 mg/kg, iv by LC-MS/MS analysis; assay type: ADME, organism-based; details: in vivo
Candida albicans [20] = assay: Antifungal activity against Candida albicans 0304103 assessed as fungal growth inhibition at 4 to 8 ug/ml incubated for 48 hrs by time-kill assay; assay type: functional, organism-based; details: dose 4-8 µg/ml
Candida albicans [21] = assay: Synergistic antifungal activity against FLC-resistant Candida albicans 17 assessed as MIC of FLC incubated for 48 hrs by broth microdilution method; assay type: functional
Candida albicans [22] = assay: Synergistic antifungal activity against FLC-resistant Candida albicans 538 assessed as MIC of FLC incubated for 48 hrs by broth microdilution method; assay type: functional
Candida albicans [23] = assay: Antifungal activity against Candida albicans SC5314 infected in C57BL/6 mouse assessed as mean fungal burden at 2 mg/kg, ip measured after 46 hrs by plate count method (reference value: 6.902 log10CFU/ml); assay type: functional
Candida albicans [24] = assay: Synergistic antifungal activity against FLC-resistant Candida albicans 304103 assessed as fractional inhibitory concentration index incubated for 48 hrs in presence of FLC by broth microdilution method; assay type: functional
Candida albicans [25] = assay: Synergistic antifungal activity against FLC-resistant Candida albicans 710513 assessed as fractional inhibitory concentration index incubated for 48 hrs in presence of FLC by broth microdilution method; assay type: functional
Candida albicans [26] = assay: Synergistic antifungal activity against FLC-resistant Candida albicans 512644 assessed as fungal growth inhibition incubated for 48 hrs in presence of FLC by broth microdilution method; assay type: functional
Candida albicans [27] = assay: Synergistic antifungal activity against FLC-resistant Candida albicans 512644 assessed as fractional inhibitory concentration index incubated for 48 hrs in presence of FLC by broth microdilution method; assay type: functional
Candida albicans [28] = assay: Synergistic antifungal activity against FLC-resistant Candida albicans 304103 assessed as fungal growth inhibition incubated for 48 hrs in presence of FLC by broth microdilution method; assay type: functional
Candida albicans [29] = assay: Synergistic antifungal activity against FLC-resistant Candida albicans 10 assessed as fractional inhibitory concentration index incubated for 48 hrs in presence of FLC by broth microdilution method; assay type: functional
Candida albicans [30] = assay: Synergistic antifungal activity against FLC-resistant Candida albicans 305 assessed as MIC of FLC incubated for 48 hrs by broth microdilution method; assay type: functional
Candida albicans [31] = assay: Synergistic antifungal activity against FLC-resistant Candida albicans 953 assessed as fungal growth inhibition incubated for 48 hrs in presence of FLC by broth microdilution method; assay type: functional
Candida albicans [32] = assay: Synergistic antifungal activity against FLC-resistant Candida albicans 379 assessed as fractional inhibitory concentration index incubated for 48 hrs in presence of FLC by broth microdilution method; assay type: functional
Candida albicans [33] = assay: Synergistic antifungal activity against FLC-resistant Candida albicans 11 assessed as fractional inhibitory concentration index incubated for 48 hrs in presence of FLC by broth microdilution method; assay type: functional
Candida albicans [34] = assay: Synergistic antifungal activity against FLC-resistant Candida albicans 538 assessed as fungal growth inhibition incubated for 48 hrs in presence of FLC by broth microdilution method; assay type: functional
Candida albicans [35] = assay: Synergistic antifungal activity against FLC-resistant Candida albicans 5740 assessed as fractional inhibitory concentration index incubated for 48 hrs in presence of FLC by broth microdilution method; assay type: functional
Candida albicans [36] = assay: Inhibition of hypha formation in Candida albicans SC5314 at 8 to 16 ug/ml incubated for 3 hrs by inverted phase contrast microscopy; assay type: functional, organism-based; details: dose 8-16 µg/ml
Candida albicans [37] = assay: Synergistic antifungal activity against FLC-resistant Candida albicans 14 assessed as MIC of FLC incubated for 48 hrs by broth microdilution method; assay type: functional
[38] = Cmax in Sprague-Dawley rat at 5 mg/kg, po by LC-MS/MS analysis; assay type: ADME, organism-based; design: dose 5 mg/kg, route po; details: in vivo
Candida albicans [39] = assay: Synergistic antifungal activity against FLC-resistant Candida albicans 100 assessed as fungal growth inhibition incubated for 48 hrs in presence of FLC by broth microdilution method; assay type: functional
Candida albicans [40] = assay: Synergistic antifungal activity against FLC-resistant Candida albicans 710452 assessed as fractional inhibitory concentration index incubated for 48 hrs in presence of FLC by broth microdilution method; assay type: functional
Candida albicans [41] = assay: Synergistic antifungal activity against FLC-resistant Candida albicans 710452 assessed as fungal growth inhibition incubated for 48 hrs in presence of FLC by broth microdilution method; assay type: functional

OC(Cn1cncn1)(Cn1cncn1)c1ccc(F)cc1F [FLUCONAZOLE]
inhibition (Candida albicans [1]): Dose-Dependent Effect | Activity (Candida albicans [2]): 5.66 log10CFU/ml

CCN(CC)c1ccc(C(NC(=O)C(C)C)c2ccc3cccnc3c2O)cc1 (stereo unspecified)
fractional inhibitory concentration index (FICI) (Candida albicans [3]): 0.063 | MIC (Candida albicans [4]): 0.125 µg/mL | inhibition at 8 µg/mL (Candida albicans [5]): 16.5% | MIC (Candida albicans [6]): 0.25 µg/mL | MIC (Candida albicans [7]): 0.016 µg/mL | MIC (Candida albicans [8]): 0.25 µg/mL | AUC(0-inf) [9]: 158 ng·h/mL | MIC (Candida albicans [10]): 0.016 µg/mL | fractional inhibitory concentration index (FICI) (Candida albicans [11]): 0.133 | Vd [12]: 4.75 L/kg | AUC(0-inf) [13]: 1110 ng·h/mL | MIC (Candida albicans [14]): 0.5 µg/mL | MIC (Candida albicans [15]): 0.25 µg/mL | MIC (Candida albicans [16]): 2 µg/mL | MIC (Candida albicans [17]): 0.016 µg/mL | MRT last [18]: 48.8 min | clearance [19]: 30.4 mL/min/kg | growth inhibition (GI) (Candida albicans [20]): inactive | MIC (Candida albicans [21]): 0.125 µg/mL | MIC (Candida albicans [22]): 2 µg/mL | Activity (Candida albicans [23]): 6.318 log10CFU/ml | fractional inhibitory concentration index (FICI) (Candida albicans [24]): 0.047 | fractional inhibitory concentration index (FICI) (Candida albicans [25]): 0.039 | MIC (Candida albicans [26]): 0.008 µg/mL | fractional inhibitory concentration index (FICI) (Candida albicans [27]): 0.047 | MIC (Candida albicans [28]): 0.008 µg/mL | fractional inhibitory concentration index (FICI) (Candida albicans [29]): 0.07 | MIC (Candida albicans [30]): 1 µg/mL | MIC (Candida albicans [31]): 0.016 µg/mL | fractional inhibitory concentration index (FICI) (Candida albicans [32]): 0.039 | fractional inhibitory concentration index (FICI) (Candida albicans [33]): 0.039 | MIC (Candida albicans [34]): 0.008 µg/mL | fractional inhibitory concentration index (FICI) (Candida albicans [35]): 0.312 | inhibition (Candida albicans [36]): Active | MIC (Candida albicans [37]): 0.25 µg/mL | Cmax [38]: 239 ng/mL | MIC (Candida albicans [39]): 0.016 µg/mL | fractional inhibitory concentration index (FICI) (Candida albicans [40]): 0.127 | MIC (Candida albicans [41]): 0.016 µg/mL
